Laboratory results from patent publication US12037415B2, “Peptide and pharmaceutical composition for treating an eye disease comprising the same as an active pharmaceutical ingredient” (YuYu Pharma, Inc., priority 2017, dated 2024).
Non-standard residues stand in square brackets, D forms with d. Residues, ends and D or L forms follow the SMILES beside them. No end group written: not given here. ξ: configuration not given here. Hyp = O=C(O)[C@@H]1C[C@@H](O)CN1; Ile(3ξ) = CCC(C)[C@H](N)C(=O)O; Sar = CNCC(=O)O

What was measured:
[1] = test system: cornea of rats with dry eye syndrome (ELGE); test: Corneal permeability of fluorescent dye (corneal damage) in rats with ELGE-induced dry eye syndrome; assay type: in vivo, rat; conditions: 0.3% solution, day 14 after the administration, study of YDE-001 to YDE-028 (Table 16)
Summary of the method: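 Dry eye induced in male Sprague-Dawley rats by extraorbital lacrimal gland excision, confirmed by Schirmer test. From day 7 post-surgery, compounds at 3 mg/ml in saline given topically 5 μl/eye twice daily. After 14 doses, 1% fluorescein applied for 1 h under anesthesia, with corneal permeability scored by slit-lamp 12–24 h later.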

[2] = test system: rats with dry eye syndrome (extraorbital lacrimal gland excision, ELGE); test: Amount of tear secretion (Schirmer test, cobalt chloride paper) in rats with ELGE-induced dry eye syndrome; assay type: in vivo, rat; conditions: for Amount of tear secretion as compared with the ELGE control group: 0.3% solution (DS 3%), administration for 14 days, study of YDE-001 to YDE-028
From the text: In order to evaluate the eye protection effect on dry eye syndrome by YDE-001 to YDE-028 prepared in Working Example 1, a total of 320 Sprague-Dawley-type male rats (OrientBio, Seungnam, Korea) were adapted for 7 days. Thereafter, dry eye syndrome was induced in 264 test rats through extraorbital lacrimal gland excision (hereinafter, ELGE). 8 test rats without the eye abnormality were subjected to a sham operation as a control group.
The rats were systemically anesthetized by inhaling a mixed gas of 2% to 3% of isoflurane (Hana Pharm. Co., Hwasung, Korea), 70% of N2O, and 28.6% of O2 using a rodent anesthesia machine (Surgivet, Waukesha, Wis., USA) and a ventilator (Model 687, Harvard Apparatus, Cambridge, UK). Thereafter, the extraorbital lacrimal gland located in the subdermal area above the masseter muscle and under the optic nerve was excised through a transverse incision in a size of 10 mm on the anterior part of the left ear tragus. The skin was sutured by a general method. […] After 6 days following the ELGE operation, confirmation was performed through the Schirmer test by measuring the amount of tear secretion whether dry eye syndrome had been induced. Meanwhile, each rat of the control group with the sham operation was checked for the presence and location of the extraorbital lacrimal gland through a skin incision, and the skin was then sutured without the excision thereof (FIG. 134).
In addition, in order to evaluate the eye protection effect on dry eye syndrome by YDE-029 to YDE-043 prepared in Working Example 1, a total of 200 Sprague-Dawley-type male rats (OrientBio, Seungnam, Korea) were adapted for 7 days. Dry eye syndrome was induced in 165 test rats through the ELGE. 8 test rats without the eye abnormality were subjected to the sham operation as a control group. The ELGE was carried out as described above.
(§1) For YDE-001 to YDE-028, YY-102 and the 28 YDE-series were each dissolved in physiological saline at a concentration of 3 mg/ml and administered at a dose of 5 μl/eye at 9:30 am and 3:30 pm daily for 14 days after 7 days from the ELGE operation for a total of 28 times. The DS solution was dissolved in physiological saline at a concentration of 30 mg/ml and administered at a dose of 5 μl/eye twice a day for 14 days after 7 days from the ELGE operation for a total of 28 times. For the sham control and the ELGE control groups, the same stimulation as the administration was applied. In order to prevent excessive eye dryness, the same volume of physiological saline was applied in the same manner in place of the test substances.
as §1, with “Further, For YDE-029” for “For YDE-001”, “Further, For YDE-029 to YDE-043,” for “For YDE-001 to YDE-028,”, “YDE-029 to YDE-043, YY-102 and” for “YDE-001 to YDE-028, YY-102 and”, “and the 15 YDE-series were” for “and the 28 YDE-series were”, “the test substances (FIG. 137).” for “the test substances.”
After 6 days from the ELGE surgery, the changes in the amount of tear secretion were measured at day 7 and day 14 after the administration of YDE-001 to YDE-043. The amount of tear secretion was measured by the […] travel distance of tears absorbed by cobalt chloride paper in a size of 1×15 mm (Toyo Roshi Kaisha, Japan).
The cobalt chloride paper was placed in the lateral canthus of a rat for 60 seconds to absorb tears (FIG. 139). The length of the area absorbed from the corner of the cobalt chloride paper was measured with an electronic digital caliper (Mytutoyo, Tokyo, Japan) (FIG. 138).

[3] = Stability in aqueous solution, amount of related substances under long-term storage conditions; assay type: physicochemical; conditions: glass vial, 25° C., 75% RH
Summary of the method: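 Test substances dissolved in water at 1 mg/ml, sealed in glass vials and held at 25° C./75% RH. Related substances measured at 1, 2, 4, 8 and 12 weeks.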

Row | Compound | Permeability of fluorescent dye (%) [1] [%] | Amount of tear secretion as compared with the ELGE control group [2] | Amount of related substances (%; after 12 weeks) [3] [%] | Tear Volumes, Day 7 ([2]; ELGE rats, 0.3% solution, 5 μl/eye twice daily, day 7 of administration, study of YDE-001 to YDE-028 (Table 14)) [mm^3] | Tear Volumes, Day 14 ([2]; ELGE rats, 0.3% solution, 5 μl/eye twice daily, day 14 of administration, study of YDE-001 to YDE-028 (Table 14)) [mm^3]
1 | CCC(C)[C@H](NC(=O)[C@H](CCC(N)=O)NC(=O)CNC(=O)[C@@H]1C[C@@H](O)CN1)C(=O)NCC(=O)N[C@@H](CC(C)C)C(=O)N[C@@H](C)C(=O)NCC(=O)N1CCC[C@H]1C(=O)N[C@@H](CCCCN)C(=O)O (stereo partly drawn) [YDE-010, HyP-Gly-Gln-Ile-Gly-Leu-Ala-Gly-Pro-Lys] (H-[Hyp]GQ[Ile(3ξ)]GLAGPK-OH) | 49.29 ± 12.06 | did not show any significant changes | 4.39 |  | 
2 | CC(C)C[C@H](NC(=O)[C@H](CC(C)C)NC(=O)[C@H](CC(=O)O)NC(=O)[C@H](CCC(N)=O)NC(=O)CNC(=O)[C@@H]1C[C@@H](O)CN1)C(=O)N[C@@H](C)C(=O)NCC(=O)N1CCC[C@H]1C(=O)N[C@@H](CCCCN)C(=O)O [YDE-017, HyP-Gly-Gln-Asp-Leu-Leu-Ala-Gly-Pro-Lys] (H-[Hyp]GQDLLAGPK-OH) | 39.76 ± 7.42 | did not show any significant changes | 11.88 |  | 
3 | CC(C)C[C@H](NC(=O)[C@H](Cc1ccccc1)NC(=O)[C@H](CC(=O)O)NC(=O)[C@H](CCC(N)=O)NC(=O)CNC(=O)[C@@H]1C[C@@H](O)CN1)C(=O)N[C@@H](C)C(=O)NCC(=O)N1CCC[C@H]1C(=O)N[C@@H](CCCCN)C(=O)O [YDE-019, HyP-Gly-Gln-Asp-Phe-Leu-Ala-Gly-Pro-Lys] (H-[Hyp]GQDFLAGPK-OH) | 40.39 ± 12.57 | did not show any significant changes | 13.43 |  | 
4 | CC(C)C[C@H](NC(=O)[C@H](Cc1ccc(O)cc1)NC(=O)[C@H](CC(=O)O)NC(=O)[C@H](CCC(N)=O)NC(=O)CNC(=O)[C@@H]1C[C@@H](O)CN1)C(=O)N[C@@H](C)C(=O)NCC(=O)N1CCC[C@H]1C(=O)N[C@@H](CCCCN)C(=O)O [YDE-020, HyP-Gly-Gln-Asp-Tyr-Leu-Ala-Gly-Pro-Lys] (H-[Hyp]GQDYLAGPK-OH) | 47.84 ± 13.47 | did not show any significant changes | 21.54 |  | 
5 | CC(C)C[C@H](NC(=O)[C@H](Cc1c[nH]c2ccccc12)NC(=O)[C@H](CC(=O)O)NC(=O)[C@H](CCC(N)=O)NC(=O)CNC(=O)[C@@H]1C[C@@H](O)CN1)C(=O)N[C@@H](C)C(=O)NCC(=O)N1CCC[C@H]1C(=O)N[C@@H](CCCCN)C(=O)O [YDE-021, HyP-Gly-Gln-Asp-Trp-Leu-Ala-Gly-Pro-Lys] (H-[Hyp]GQDWLAGPK-OH) | 37.00 ± 10.49 | did not show any significant changes | 21.33 |  | 
6 | CC(C)C[C@H](NC(=O)[C@H](Cc1c[nH]cn1)NC(=O)[C@H](CC(=O)O)NC(=O)[C@H](CCC(N)=O)NC(=O)CNC(=O)[C@@H]1C[C@@H](O)CN1)C(=O)N[C@@H](C)C(=O)NCC(=O)N1CCC[C@H]1C(=O)N[C@@H](CCCCN)C(=O)O [YDE-022, HyP-Gly-Gln-Asp-His-Leu-Ala-Gly-Pro-Lys] (H-[Hyp]GQDHLAGPK-OH) | 47.82 ± 10.01 | did not show any significant changes | 19.23 |  | 
7 | COC(=O)C[C@H](NC(=O)[C@H](CCC(N)=O)NC(=O)CNC(=O)[C@@H]1C[C@@H](O)CN1)C(=O)NCC(=O)N[C@@H](CC(C)C)C(=O)N[C@@H](C)C(=O)NCC(=O)N1CCC[C@H]1C(=O)N[C@@H](CCCCN)C(=O)O [YDE-027, HyP-Gly-Gln-Asp(Me)-Gly-Leu-Ala-Gly-Pro-Lys] (H-[Hyp]GQD(OMe)GLAGPK-OH) | 50.24 ± 11.94 | did not show any significant changes | 12.74 |  | 
8 | CNC(=O)C[C@H](NC(=O)[C@H](CCC(N)=O)NC(=O)CNC(=O)[C@@H]1C[C@@H](O)CN1)C(=O)NCC(=O)N[C@@H](CC(C)C)C(=O)N[C@@H](C)C(=O)NCC(=O)N1CCC[C@H]1C(=O)N[C@@H](CCCCN)C(=O)O [YDE-028, HyP-Gly-Gln-Asn(Me)-Gly-Leu-Ala-Gly-Pro-Lys] (H-[Hyp]GQD(NHMe)GLAGPK-OH) | 41.17 ± 10.25 | did not show any significant changes | 1.15 |  | 
9 | YDE-025: peptide of SEQ ID NO: 31, the compound represented by Formula 10 ([Hyp]GQD[Sar]LAGPK; ends and bridges not checked) | 47.10 ± 11.45 | did not show any significant changes | 5.17 | 3.21 ± 0.72 | 4.72 ± 2.19
